Laboratory results published in publication PMC7016953 (Cells, 2020).
One block for each molecule: values may come before it.

Tests used:
[1] = system: PC12 cells (native TRPC3 channel complexes); assay: Whole-cell patch-clamp recordings in PC12 cells; assay type: cell-based, rat; details: 20 µM CBN 2910-0498, 10 µM SAR7334, or 10 µM GSK417654A
Experimental: The recordings of TRPC3, TRPC6, or TRPC7 membrane currents in HEK293 or PC12 cells were realized by using a Multiclamp 700B amplifier with a Digidata 1440A digitizer controlled by the PClamp 10 software (all Molecular Devices, Sunnyvale, CA, U.S.A.). Recordings were obtained at room temperature either in the whole-cell or in an outside-out configuration as indicated. Cells were seeded as described above, but at lower density, mounted in a chamber (Warner Instruments, Hamden, CT; U.S.A.), placed onto the stage of an inverted microscope, and perfused with required solution. The standard extracellular solution contained 140 mM NaCl, 5 mM CsCl, 2 mM MgCl2, 1 mM CaCl2, 10 mM HEPES, and 0.035% BSA adjusted to pH 7.4 with NaOH. The composition of standard intracellular solution was 140 mM CsCl, 1 mM MgCl2, 5 mM EGTA, and 10 mM HEPES adjusted to pH 7.25 with CsOH; the osmolarity was 295 mOsm l^−1. In outside-out measurements, the pipette solution contained 5 mM EGTA and 1.1 mM CaCl2 to achieve a calculated free Ca^2+ concentration of 100 nM.
Patch pipettes were pulled from borosilicate glass capillaries BG150F-8P (Science Products, Hofheim, Germany) with a PIP6 pipette puller (HEKA Elektronik, Lambrecht, Germany). […] In all whole-cell measurements, the series resistance was lower than 13 MΩ, and compensated by 70%. If the access was unstable during the experiment (increase in series resistance by more than 15% at the end of the experiment), the cell was omitted from the analysis. To record current/voltage (I/V) curves, voltage ramps (400 mV s^−1) ranging from –100 to +100 mV were applied. Currents were filtered at 3 kHz with a four-pole Bessel filter and sampled at 10 kHz. […]
Figure 9 Artemisinin-induced ionic currents in HEK293 cells and in PC12 cells are sensitive to established TRPC3 inhibitors. […] Concentration–response curves were normalized to responses measured without an inhibitor (controls), and IC50 values were obtained by fitting a four-parameter Hill equation to the data. […]

TRPC3 = biological target: T1, TRPC3 (Homo sapiens, UniProt Q13507); assay: Fluo-4 Ca2+ influx assay in HEK TRPC3-YFP cell suspensions; assay type: cell-based; details: for IC50: inhibitor 5 min, then 50 µM artemisinin, fluo-4, read-out: IC50 for inhibition of artemisinin-induced increases in [Ca2+]i; for effect of preincubation on responses to artemisinin (1–200 µM): 10 µM for 5 min; for TRPC3 activation in concentration response analysis: fluo-4, up to 200 µM, compared with solvent (DMSO)
T1 construct: expressed in transfected cells
T1 sequence (Q13507 1-848 isoform Q13507-3): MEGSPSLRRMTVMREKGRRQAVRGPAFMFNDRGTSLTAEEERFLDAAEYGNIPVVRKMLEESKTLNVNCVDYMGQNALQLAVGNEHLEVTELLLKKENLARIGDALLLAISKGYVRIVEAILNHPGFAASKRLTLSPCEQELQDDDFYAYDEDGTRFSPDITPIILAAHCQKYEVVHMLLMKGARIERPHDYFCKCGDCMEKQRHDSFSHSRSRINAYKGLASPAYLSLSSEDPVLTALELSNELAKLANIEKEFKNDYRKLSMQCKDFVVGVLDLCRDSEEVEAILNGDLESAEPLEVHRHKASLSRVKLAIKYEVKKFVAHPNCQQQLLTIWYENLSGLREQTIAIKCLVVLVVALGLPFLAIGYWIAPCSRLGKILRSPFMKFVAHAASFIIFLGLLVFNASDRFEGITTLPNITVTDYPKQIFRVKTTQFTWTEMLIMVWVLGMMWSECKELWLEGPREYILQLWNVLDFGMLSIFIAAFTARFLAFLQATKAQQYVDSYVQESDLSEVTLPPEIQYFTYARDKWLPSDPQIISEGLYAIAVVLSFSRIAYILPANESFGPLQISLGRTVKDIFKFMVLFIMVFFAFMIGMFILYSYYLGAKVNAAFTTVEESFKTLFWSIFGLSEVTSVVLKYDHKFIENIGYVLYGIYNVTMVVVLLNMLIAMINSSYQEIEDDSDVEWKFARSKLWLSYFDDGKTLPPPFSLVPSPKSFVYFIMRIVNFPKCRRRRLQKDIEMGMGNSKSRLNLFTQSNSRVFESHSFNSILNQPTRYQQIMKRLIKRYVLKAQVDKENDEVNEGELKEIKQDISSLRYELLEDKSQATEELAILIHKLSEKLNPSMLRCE

hTRPC7-YFP = system: T2, hTRPC7-YFP; assay: Fluo-4 Ca2+ influx assay in HEK293 cells stably expressing TRPC7; assay type: cell-based, human; details: fluo-4 concentration response analysis
T2 construct: expressed in transfected cells

[2] = system: T3, heteromeric TRPC3:TRPC6 channel complexes; assay: Fluo-4 Ca2+ influx assay in HEK293 cells co-expressing TRPC3 and TRPC6; assay type: cell-based; details: fluo-4 concentration response analysis
T3 construct: expressed in transfected cells; host or cells: HEK293, stably co-transfected
Experimental: All fluorometric Ca^2+ assays were done in (4-(2-hydroxyethyl)-1-piperazineethanesulfonic acid) (HEPES)-buffered saline (HBS), containing 132 mM NaCl, 6 mM KCl, 1 mM MgCl2, 1 mM CaCl2, 5.5 mM D-glucose, 10 mM HEPES, and 0.035% bovine serum albumin (BSA) adjusted to pH 7.4 with NaOH. For measurements in Ca^2+-free bath solutions, a modified HBS without CaCl2 was supplemented with 200 µM ethylene glycol-bis(β-aminoethyl ether)-N,N,N′,N′-tetraacetic acid (EGTA).
The primary compound screen and the generation of concentration response curves in HEK293 cells or in PC12 cells were performed by using a custom-made fluorescence plate imager built into a robotic liquid handling station equipped with a 96-tip multichannel head (Freedom Evo 150, Tecan, Männedorf, Switzerland) as described previously. To this end, trypsinized cell suspensions were loaded with 4 µM fluo-4/AM (Invitrogen, Thermo Fisher Scientific, Waltham, MA, U.S.A.) in cell culture medium for 30 min at 37 °C. After brief centrifugation, cells were resuspended in HBS and dispensed into black pigmented, clear-bottom 384-well plates (Greiner µClear, Frickenhausen, Germany). Plates were mounted on the imager, and fluorescence signals were recorded with a cooled Zyla 5.5 camera (Andor, Belfast, UK) through a 515 nm long pass filter. The image acquisition was controlled by the µManager software (http://micro-manager.org), and excitation with a LED array (470 nm) was synchronized by the camera trigger output. After baseline recording for about 60 s, the compound libraries or serial dilutions of activators or inhibitors were added to the cells by the liquid handling device. When inhibitory potencies were evaluated, a second pipetting step with the respective reference agonist was performed. Fluorescence intensities were calculated from image stacks for each well with ImageJ (National Institutes of Health, Bethesda, MD, U.S.A.), corrected for background signals, and normalized to the initial intensities (F/F0). […]

[3] = system: PC12 cells (native TRPC3 channel complexes); assay: [Ca2+]i analysis in fura-2-loaded PC12 cells; assay type: cell-based, rat; details: artemisinin 50 or 100 µM; 6–12 experiments for each compound
Experimental: Human embryonic kidney 293 (HEK293) cells were stably transfected with expression plasmids that encode hTRPC3-YFP, hTRPC6-YFP, hTRPC7-YFP, mTRPC4ß-YFP, rTRPV1-CFP, rTRPV2-YFP, rTRPV3-YFP, mTRPV4-YFP, or hTRPM2 as previously described. Cell lines were cultured in Earle’s minimum essential medium (MEM; Sigma, Munich, Germany), supplemented with 10% fetal calf serum (Gibco Thermo Fisher Scientific, Darmstadt, Germany), 2 mM L-glutamine, and required concentrations of geneticin in a range of 0.4–1 mg/mL. A HEK293mTRPC5-YFP cell line was maintained and induced as described before. The HEK293mTRPM3α2 cells (expressing the Ca^2+-permeable main variant of mouse TRPM3) were kindly provided by Johannes Oberwinkler (Marburg, Germany), the HEK293hTRPA1 cells that constitutively overexpress the human TRPA1 were from Dr. Natalie Tigue and Dr. Steve Moore (GlaxoSmithKline, Harlow, UK). With the exception of mTRPC5-YFP, all cell lines constitutively overexpress the respective TRP channel under the control of a cytomegalovirus (CMV) promoter. A HEK cell line stably expressing the human protein kinase C (PKC) ε C-terminally tagged with YFP [13] was generated and maintained in the same medium as HEKTRPC3-YFP cells. PC12 cells were cultured in RPMI-1640 (Sigma, Munich, Germany) with 10% fetal calf serum, 2 mM L-glutamine, 100 U/mL penicillin, and 0.1 mg/mL streptomycin. For electrophysiological and single cell [Ca^2+]i imaging experiments, PC12 cells were plated onto 25 mm poly-L-lysine-coated glass coverslips and measured 24–48 h after seeding. All cells were maintained at 37 °C in a 5% CO2-aerated, humidified atmosphere.
The microfluorometric single-cell [Ca^2+]i analysis was performed on an inverted epifluorescence microscope (Carl Zeiss, Jena, Germany) and calibrated as described. Cells were grown on 25 mm coverslips and loaded with 4 µM fura-2/AM (AAT Bioquest, Sunnyvale, CA, U.S.A.) in HBS containing 0.2% BSA for 30 min at 37 °C. After gently rinsing the coverslips with HBS, coverslips were mounted in a bath chamber and superfused with HBS containing 0.035% BSA.
Figure 7 Expression of TRPC3 and functional responses to TRPC activators in PC12 rat pheochromocytoma cells. (A) Immunofluorescence analysis of TRPC3 (green channel) and tyrosine hydroxylase (TH; red channel) expression in PC12 cells. Nuclei were counterstained with DAPI (blue channel). Bars: 20 µm scale. Time course of the [Ca^2+]i (B) and averaged basal and peak [Ca^2+]i values (C) were recorded by microfluorometric analysis in fura-2-loaded PC12 cells grown on glass coverslips. […] Data represent averages (B) or means and S.D. (C) of 6–12 imaging experiments for each compound. Significant increases compared to the respective basal values are indicated (#: p < 0.05; Student´s t-test for paired data).

SMILES: CO[C@H]1O[C@@H]2O[C@@]3(C)CC[C@H]4[C@H](C)CC[C@@H]([C@H]1C)[C@@]24OO3 [artemether]
- EC50 (TRPC3; fluo-4, HEK TRPC3-YFP cell suspensions, read-out: potency to activate Ca2+ entry through TRPC3): 14800 nM
- effect on TRPC7 (hTRPC7-YFP): inhibited
- response of cells stably transfected with both TRPC3 and TRPC6 [2]: in a very similar fashion as HEKTRPC3-YFP cells

SMILES: CCO[C@H]1O[C@@H]2O[C@@]3(C)CC[C@H]4[C@H](C)CC[C@@H]([C@H]1C)[C@@]24OO3 [arteether]
- TRPC3 activation in concentration response analysis (TRPC3): did not exert signals that were significantly stronger than responses to the solvent
- effect on TRPC7 (hTRPC7-YFP): inhibited

SMILES: C[C@H]1[C@H](OC(=O)CCC(=O)O)O[C@@H]2O[C@@]3(C)CC[C@H]4[C@H](C)CC[C@@H]1[C@@]24OO3 [artesunate]
- TRPC3 activation in concentration response analysis (TRPC3): did not exert signals that were significantly stronger than responses to the solvent

SMILES: O=C(c1cc2c(s1)CCCCC2)N1CCC(n2c(=O)[nH]c3ccccc32)CC1 [GSK-1702934A]
- [Ca2+]i in fura 2-loaded PC12 cells [3]: significant increases in [Ca^2+]i

Continued, in another order:

- IC50 (TRPC3): 500 nM
SMILES: COc1ccc(Nc2nc(C(=O)N3CCc4ccccc4C3)cs2)cc1 [GSK417654A]
- effect on ionic currents stimulated by 50 µM artemisinin in PC12 cells [1]: rapidly reversed

- IC50 (TRPC3): 1400 nM
SMILES: N#Cc1ccc(O[C@@H]2c3ccccc3C[C@H]2N2CCC[C@@H](N)C2)c(Cl)c1 [SAR7334]
- effect on ionic currents stimulated by 50 µM artemisinin in PC12 cells [1]: rapidly reversed

- effect of preincubation on responses to artemisinin (1–200 µM) (TRPC3): did not increase the responses
SMILES: O=c1c2ccccc2[nH]c(=S)n1CCN1CCC(=C(c2ccc(F)cc2)c2ccc(F)cc2)CC1 [R59949]

- effect of preincubation on responses to artemisinin (1–200 µM) (TRPC3): did not increase the responses
SMILES: O=C(NCCCCCCNC(=O)ON=C1CCCCC1)ON=C1CCCCC1 [RHC 80267]
